Test results as given in patent US20250326712A1, “IONIZABLE LIPIDS” (eTheRNA immunotherapies NV, priority 2022, published 2025).

Key:
[1] = mRNA encapsulation by Ribogreen RNA assay; assay type: physicochemical; settings: LNP: ionizable lipid/DSPC/cholesterol/DMG-PEG2000 about 50/10/38.5/1.5, eGFP mRNA, mRNA/ionizable lipid 1/10
Protocol: (§1) Lipid based nanoparticles were produced by microfluidic mixing of an mRNA solution in sodium acetate buffer (100 mM, pH 4) and lipid solution in a 2:1 volume ratio at a speed of 16 mL/min using the NanoAssemblr Benchtop (Precision Nanosystems). LNPs were produced at a standard molar ratio ionizable lipid/DSPC (Avanti Polar Lipids)/cholesterol (Sigma)/DMG-PEG2000 (Avanti Polar Lipids) of about 50/10/38.5/1.5. eGFP mRNA was encapsulated in all LNPs as reporter mRNA, at a mRNA/ionizable lipid molar ratio of 1/10. LNPs were dialyzed against TBS (10000 times more TBS volume than LNP volume) using slide-a-lyzer dialysis cassettes (20K MWCO, 3 mL, ThermoFisher). Size, polydispersity and zeta potential were measured with a Zetasizer Nano (Malvern). mRNA encapsulation was measured by standard Ribogreen RNA assay (Invitrogen).

[2] = LNP size and polydispersity measured with a Zetasizer Nano; assay type: physicochemical; settings: LNP: ionizable lipid/DSPC/cholesterol/DMG-PEG2000 about 50/10/38.5/1.5, eGFP mRNA, dialyzed against TBS; for size: in nm (unit assumed)
Protocol: as §1

hEPO expression = assay: In vivo hEPO expression after IV mRNA LNP injection (hEPO ELISA); design: species or system BALB/c mice; settings: hEPO mRNA LNPs, 10 μg mRNA intravenous in tail vein, different timepoints, FIGS. 3 A & B
Protocol: LNPs were produced at a standard molar ratio ionizable lipid/DSPC/cholesterol/DMG-PEG2000 of about 50/10/38.5/1.5. Human erythropoietin (hEPO) mRNA was encapsulated in all LNPs at an mRNA/ionizable lipid molar ratio of 1/10.
BALB/c mice (female, 6 weeks old mice) were injected intravenously in the tail vein with 200 μl of the respective mRNA LNPs (10 μg mRNA, TBS buffer) or control buffer. Blood was collected from the submandibular vein at different timepoints after which hEPO concentrations were determined using hEPO ELISA assay kit (catalog #BMS2035-2—Thermofisher Scientific), according to the manufacturer's instructions.

SMILES | % encap [1] | PDI [2] | size [2] | hEPO expression (serum concentration, area under curve) (hEPO expression)
CCCCCCCCCOC(=O)CCCCCCCN(CCCCCCCC(=O)OC(CCCCCCCC)CCCCCCCC)C(=O)OCCSSCCOC(=O)NCCN(C)C [ETG-53] | 97% | 0.085 | 103.23 | higher hEPO expression compared to ETG-23 control
CCCCCCCCC(CCCCCCCC)OC(=O)CCCCCCCN(CCCCCC(=O)OC(CCCCCCCC)CCCCCCCC)C(=O)OCCSSCCOC(=O)NCCN(C)C [ETG-57] | 95% | 0.114 | 109.10 | 
CCCCCCCCC(CCCCCCCC)OC(=O)CCCCCCCN(CCCCCC(=O)OC(CCCCCCCC)CCCCCCCC)C(=O)OCCSSCCOC(=O)NCCN1CCCCCC1 [ETG-58] | 98% | 0.086 | 101.50 | 
CCCCCCCC/C=C\CCCCCCCC(=O)OCC(CNC(=O)OCCSSCCOC(=O)NCCN1CCCCCC1)OC(=O)CCCCCCC/C=C\CCCCCCCC (stereo not shown) [ETG-23, reference compound] | 97% | 0.082 | 75.97 | 
CCCCCCCCC(CC)OC(=O)CCCCCCCN(CCCCCCCC(=O)OC(CCCCCCCC)CCCCCCCC)C(=O)OCCSSCCOC(=O)NCCN(C)C (stereo not shown) [ETG-55] | 96% | 0.123 | 93.73 | 

Continued, in another order:

% encap [1] | PDI [2] | size [2] | SMILES | hEPO expression (serum concentration, area under curve) (hEPO expression)
96% | 0.119 | 111.97 | CCCCCC/C=C\COC(=O)CCCCCCCN(CCCCCCCC(=O)OC(CCCCCCCC)CCCCCCCC)C(=O)OCCSSCCOC(=O)NCCN(C)C [ETG-51] | 
98% | 0.150 | 90.30 | CCCCCCCCCOC(=O)CCCCCCCN(CCCCCCCC(=O)OC(CCCCCCCC)CCCCCCCC)C(=O)OCCSSCCOC(=O)NCCN1CCCCCC1 [ETG-54] | 
97% | 0.099 | 90.70 | CCCCCC/C=C\COC(=O)CCCCCCCN(CCCCCCCC(=O)OC(CCCCCCCC)CCCCCCCC)C(=O)OCCSSCCOC(=O)NCCN1CCCCCC1 [ETG-52] | 
98% | 0.120 | 86.26 | CCCCCCCCC(CC)OC(=O)CCCCCCCN(CCCCCCCC(=O)OC(CCCCCCCC)CCCCCCCC)C(=O)OCCSSCCOC(=O)NCCN1CCCCCC1 (stereo not shown) [ETG-56] | 
